# The source made the active and inactive calls. The calls are words filed in the database; no cut-off is given here.
# Tests used:
# [1] = Half life in Han Wistar rat at 0.25 mg/kg, iv by LC/MS/MS analysis; type: ADME, organism-based; set-up: dose 0.25 mg/kg, route intravenous; settings: in vivo
# [2] = Oral bioavailability in Han Wistar rat at 2 mg/kg after 8 hrs by LC/MS/MS analysis; type: ADME, organism-based; settings: in vivo
# [3] = Cmax in Han Wistar rat at 2 mg/kg, po after 8 hrs by LC/MS/MS analysis; type: ADME, organism-based; set-up: dose 2 mg/kg, route oral; settings: in vivo
# [4] = Plasma clearance in Han Wistar rat at 0.25 mg/kg, iv after 8 hrs by LC/MS/MS analysis; type: ADME, organism-based; set-up: dose 0.25 mg/kg, route intravenous
# [5] = tested on: Cavia porcellus; test: Ex vivo bronchodilatory activity in guinea pig assessed as protection against histamine-induced bronchospasm administered via nebulizer; type: functional
# [6] = Bronchodialatory activity against electrically-stimulated contraction in guinea pig trachea assessed as time taken for inducing 50% maximum relaxant effect
# [7] = Volume of distribution at steady state in Han Wistar rat at 0.25 mg/kg, iv after 8 hrs by LC/MS/MS analysis; type: ADME, organism-based; set-up: dose 0.25 mg/kg, route intravenous; settings: in vivo, read-out: Vdss
# [8] = tested on: Cavia porcellus; test: Ex vivo bronchodilatory activity against histamine-induced bronchospasm in guinea pig assessed as time taken for 50% recovery of bronchospasm at 10-fold EC90 administered via nebulizer; type: functional
# [9] = biological target: Beta-3 adrenergic receptor (Homo sapiens, UniProt P13945)
# Chain of Beta-3 adrenergic receptor (P13945 whole entry): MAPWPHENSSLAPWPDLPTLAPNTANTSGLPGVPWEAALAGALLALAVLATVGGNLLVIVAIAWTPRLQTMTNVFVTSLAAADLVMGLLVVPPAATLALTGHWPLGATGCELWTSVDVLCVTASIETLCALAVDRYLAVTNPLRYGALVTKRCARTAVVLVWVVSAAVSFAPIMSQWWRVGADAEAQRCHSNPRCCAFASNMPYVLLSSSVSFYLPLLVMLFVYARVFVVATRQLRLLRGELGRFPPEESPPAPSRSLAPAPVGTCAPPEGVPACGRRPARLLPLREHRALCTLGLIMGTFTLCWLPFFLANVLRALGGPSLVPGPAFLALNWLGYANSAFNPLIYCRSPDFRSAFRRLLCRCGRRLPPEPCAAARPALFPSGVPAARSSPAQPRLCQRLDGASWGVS
# Description: Agonist activity at human recombinant beta3 adrenergic receptor expressed in CHO cells assessed as induction of intracellular cAMP accumulation after 30 to 45 mins
# [10] = biological target: Beta-2 adrenergic receptor (Homo sapiens, UniProt P07550)
# Chain of Beta-2 adrenergic receptor (P07550 whole entry): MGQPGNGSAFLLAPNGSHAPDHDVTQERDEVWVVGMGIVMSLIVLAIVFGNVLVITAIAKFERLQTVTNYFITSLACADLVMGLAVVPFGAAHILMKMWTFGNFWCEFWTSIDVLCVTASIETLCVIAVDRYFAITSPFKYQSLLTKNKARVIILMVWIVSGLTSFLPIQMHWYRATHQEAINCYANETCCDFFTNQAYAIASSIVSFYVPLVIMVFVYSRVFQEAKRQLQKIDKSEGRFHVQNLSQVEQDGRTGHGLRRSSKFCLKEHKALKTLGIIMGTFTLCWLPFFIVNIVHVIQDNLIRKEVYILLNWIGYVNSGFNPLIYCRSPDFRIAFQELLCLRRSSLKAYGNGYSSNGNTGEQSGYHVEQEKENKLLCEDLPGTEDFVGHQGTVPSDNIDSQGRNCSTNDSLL
# Description: Agonist activity at human recombinant beta2 adrenergic receptor expressed in CHO cells assessed as induction of intracellular cAMP accumulation after 30 to 45 mins
# [11] = species on record: Cavia porcellus; test: Bronchodialatory activity against electrically-stimulated contraction in guinea pig trachea assessed as inhibition of recovery of contractile effect measured after 1 hr of drug washout; type: functional, tissue-based
# [12] = biological target: Beta-1 adrenergic receptor (Homo sapiens, UniProt P08588)
# Chain of Beta-1 adrenergic receptor (P08588 whole entry): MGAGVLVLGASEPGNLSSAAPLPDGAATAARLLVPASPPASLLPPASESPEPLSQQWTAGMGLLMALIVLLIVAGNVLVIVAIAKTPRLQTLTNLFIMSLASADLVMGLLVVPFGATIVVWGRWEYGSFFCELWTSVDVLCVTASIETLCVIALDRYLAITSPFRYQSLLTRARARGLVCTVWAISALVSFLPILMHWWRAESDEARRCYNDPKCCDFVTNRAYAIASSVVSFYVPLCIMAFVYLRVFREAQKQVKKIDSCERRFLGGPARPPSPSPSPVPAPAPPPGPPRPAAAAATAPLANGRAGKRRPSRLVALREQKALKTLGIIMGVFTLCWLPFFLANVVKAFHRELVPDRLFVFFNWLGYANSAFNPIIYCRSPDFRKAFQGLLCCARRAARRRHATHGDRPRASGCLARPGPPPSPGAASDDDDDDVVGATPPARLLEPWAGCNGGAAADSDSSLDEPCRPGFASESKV
# Description: Agonist activity at human recombinant beta-1 adrenergic receptor expressed in CHO cells assessed as induction of intracellular cAMP accumulation after 30 to 45 mins
# [13] = tested on: Cavia porcellus; test: Ex vivo bronchodilatory activity against histamine-induced bronchospasm in guinea pig assessed as time taken for 50% recovery of bronchospasm at EC90 administered via nebulizer; type: functional
# [14] = Oral bioavailability in rat; type: ADME, organism-based; settings: in vivo
# [15] = species on record: Cavia porcellus; test: Bronchodialatory activity against electrically-stimulated contraction in guinea pig trachea assessed as inhibition of recovery of contractile effect measured after 3 hrs of drug washout; type: functional, tissue-based
# [16] = Solubility at pH 7.4; type: physicochemical; settings: buffer
smiles,measurement,setting,value
CC(=O)O.OCc1cc([C@@H](O)CNCCCCCCOCCOCc2c(Cl)cccc2Cl)ccc1O [VILANTEROL ACETATE],half-life,[1],48 min
same,bioavailability,[2],< 5%
same,Cmax,[3],< 2 ng/mL
same,clearance,[4],123 mL/min/kg
same,EC90,[5],30000 nM
same,Time,[6],6.6 min
same,Vd,[7],4.4 L/kg
same,Time,[8],17 h
same,EC50,[9],794 nM
Cc1ccc(COCCOCCCCCCNC[C@H](O)c2ccc(O)c(CO)c2)cc1,EC50,[10],2.51 nM
CC(=O)O.Cc1cc(C)cc(COCCOCCCCCCNC[C@H](O)c2ccc(O)c(CO)c2)c1,Activity,[11],Active
same,Time,[6],6.9 min
same,EC50,[12],7.94 nM
same,EC50,[9],5.01 nM
OCc1cc([C@@H](O)CNCCCCCCOCCOCc2ccc(O)cc2)ccc1O,EC50,[10],7.94 nM
same,EC50,[12],79.4 nM
same,EC50,[9],63.1 nM
NS(=O)(=O)c1cccc(COCCOCCCCCCNC[C@H](O)c2ccc(O)c(CO)c2)c1,EC50,[10],1.58 nM
same,EC50,[12],50.1 nM
same,EC50,[9],126 nM
OCc1cc([C@@H](O)CNCCCCCCOCCOCc2cc(Cl)ccc2Cl)ccc1O,EC50,[12],12.6 nM
same,EC50,[9],7.94 nM
NC(=O)Nc1cccc(COCCOCCCCCCNC[C@H](O)c2ccc(O)c(CO)c2)c1,EC50,[10],1.58 nM
same,EC50,[12],20 nM
same,EC50,[9],316 nM
OCc1cc(C(O)CNCCCCCCOCCCCc2ccccc2)ccc1O (stereo not given) [SALMETEROL],Time,[13],10 h
same,Activity,[11],Active
same,bioavailability,[14],10%
same,EC90,[5],50000 nM
same,Activity,[15],Active
O=C(O)C(c1ccccc1)(c1ccccc1)c1ccccc1.OCc1cc([C@@H](O)CNCCCCCCOCCOCc2c(Cl)cccc2Cl)ccc1O [VILANTEROL TRIFENATATE],solubility,[16],33 µg/mL
OCc1cc([C@@H](O)CNCCCCCCOCCOCc2c(Cl)cccc2Cl)ccc1O,Activity,[11],Active
same,Activity,[15],Active
CC(=O)O.OCc1cc([C@@H](O)CNCCCCCCOCCOCc2cccc3ccccc23)ccc1O,Activity,[11],Active
same,EC50,[10],0.126 nM
same,Time,[6],10.2 min
same,Activity,[15],Active
same,EC50,[12],12.6 nM
same,EC50,[9],5.01 nM
CS(=O)(=O)Nc1cccc(COCCOCCCCCCNC[C@H](O)c2ccc(O)c(CO)c2)c1,EC50,[10],0.251 nM
same,EC50,[12],12.6 nM
same,EC50,[9],79.4 nM
OCc1cc([C@@H](O)CNCCCCCCOCCOCc2cccc(O)c2)ccc1O,EC50,[12],20 nM
same,EC50,[9],31.6 nM
OCCOCCCCCCNC[C@H](O)c1ccc(O)c(CO)c1,EC50,[9],12600 nM
O=C(O)/C(=C/c1ccccc1)c1ccccc1.OCc1cc([C@@H](O)CNCCCCCCOCCOCc2c(Cl)cccc2Cl)ccc1O [VILANTEROL .ALPHA.-PHENYL CINNAMATE],solubility,[16],190 µg/mL
NS(=O)(=O)c1ccc(COCCOCCCCCCNC[C@H](O)c2ccc(O)c(CO)c2)cc1,EC50,[10],2 nM
same,EC50,[12],100 nM
same,EC50,[9],398 nM
OCc1cc([C@@H](O)CNCCCCCCOCCOCc2ccc(Cl)cc2)ccc1O,EC50,[10],2.51 nM
CC(=O)O.OCc1cc([C@@H](O)CNCCCCCCOCCOCc2ccccc2)ccc1O,EC50,[10],2.51 nM
same,Time,[6],4.8 min
same,Activity,[15],Active
same,EC50,[12],31.6 nM
same,EC50,[9],39.8 nM
